Test results taken from PubChem BioAssay AID248 (DTP/NCI, 2004).
Where “and” joins values, the source holds several entries; their conditions need not be identical. Identical values can stand only once. Toxic doses and inconclusive results are not listed. Cut-off read from the data, not from the text of the source: active = T/C of 150% or more; inactive = T/C below 125%.

System: L1210 leukemia ip in BDF1 mice, survival T/C
Test: NCI In Vivo Anticancer Drug Screen. Data for tumor model L1210 Leukemia (intraperitoneal) in B6D2F1 (BDF1) mice
Conditions: endpoint: mean survival time, higher = longer survival
Procedure, shortened: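 Antitumor effect is assessed in tumor-bearing animals. Survival in the compound arm is compared with a vehicle-dosed control arm and expressed as their quotient.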

Measured: T/C

C[Se](=O)O
inactive: dose: 3.13 mg/kg/injection, schedule: Q01DX001 (ip), vehicle: saline 94 % of control | dose: 6.25 mg/kg/injection, schedule: Q01DX001 (ip), vehicle: saline 91 % of control | dose: 12.5 mg/kg/injection, schedule: Q01DX001 (ip), vehicle: saline 88 % of control

CCN(CCO)CC(C)Nc1ccc([N+](=O)[O-])c2sc3ccccc3c(=O)c12 (stereo not given)
active: dose: 30.0 mg/kg/injection, schedule: Q01DX Z (ip), vehicle: other 156 % of control | dose: 40.0 mg/kg/injection, schedule: Q01DX Z (ip), vehicle: saline 166 % of control | dose: 91.5 mg/kg/injection, schedule: Q01DX Z (ip), vehicle: saline 160 % of control | dose: 400.0 mg/kg/injection, schedule: Q01DX001 (ip), vehicle: saline 167 % of control and 175 % of control
inactive: dose: 1.5 mg/kg/injection, schedule: Q01DX Z (ip), vehicle: carboxymethylcellulose (CMC) 96 % of control | dose: 3.0 mg/kg/injection, schedule: Q01DX Z (ip), vehicle: carboxymethylcellulose (CMC) 107 % of control | dose: 3.5 mg/kg/injection, schedule: Q01DX Z (ip), vehicle: saline 101 % of control | dose: 5.3 mg/kg/injection, schedule: Q01DX Z (ip), vehicle: saline 115 % of control | dose: 6.0 mg/kg/injection, schedule: Q01DX Z (ip), vehicle: carboxymethylcellulose (CMC) 100 % of control | dose: 8.0 mg/kg/injection, schedule: Q01DX Z (ip), vehicle: saline 104 % of control | dose: 10.0 mg/kg/injection, schedule: Q01DX Z (ip), vehicle: other 107 % of control | dose: 12.0 mg/kg/injection, schedule: Q01DX Z (ip), vehicle: carboxymethylcellulose (CMC) 110 % of control | dose: 12.0 mg/kg/injection, schedule: Q01DX Z (ip), vehicle: saline 105 % of control and 89 % of control | dose: 18.0 mg/kg/injection, schedule: Q01DX Z (ip), vehicle: saline 91 % of control | dose: 60.0 mg/kg/injection, schedule: Q01DX Z (ip), vehicle: saline 104 % of control | dose: 90.0 mg/kg/injection, schedule: Q01DX Z (ip), vehicle: other 121 % of control | dose: 90.0 mg/kg/injection, schedule: Q01DX Z (ip), vehicle: saline 89 % of control | dose: 100.0 mg/kg/injection, schedule: Q01DX001 (ip), vehicle: saline 114 % of control | dose: 137.0 mg/kg/injection, schedule: Q01DX Z (ip), vehicle: saline 124 % of control

O=C(O)C(CO)NS(=O)(=O)Cc1ccccc1 (stereo not given)
inactive: dose: 100.0 mg/kg/injection, schedule: Q01DX001 (ip), vehicle: other 104 % of control | dose: 200.0 mg/kg/injection, schedule: Q01DX001 (ip), vehicle: other 96 % of control | dose: 400.0 mg/kg/injection, schedule: Q01DX001 (ip), vehicle: other 96 % of control

O=C(Nc1cc(Cl)ccc1Oc1cc(Cl)c(Cl)cc1S(=O)(=O)O)Nc1cc(Cl)ccc1Oc1cc(Cl)c(Cl)cc1S(=O)(=O)O
inactive: dose: 18.75 mg/kg/injection, schedule: Q01DX009 (ip), vehicle: saline 97 % of control | dose: 37.5 mg/kg/injection, schedule: Q01DX009 (ip), vehicle: saline 90 % of control | dose: 75.0 mg/kg/injection, schedule: Q01DX001 (ip), vehicle: saline 106 % of control | dose: 75.0 mg/kg/injection, schedule: Q01DX009 (ip), vehicle: saline 94 % of control | dose: 150.0 mg/kg/injection, schedule: Q01DX001 (ip), vehicle: saline 97 % of control

O=C(CCCN1CCC2(CC1)C(=O)NCN2c1ccccc1)c1ccc(F)cc1
inactive: dose: 0.78 mg/kg/injection, schedule: Q01DX009 (ip), vehicle: saline 96 % of control | dose: 0.78 mg/kg/injection, schedule: Q04DX003 (ip), vehicle: saline 98 % of control | dose: 1.56 mg/kg/injection, schedule: Q01DX009 (ip), vehicle: saline 105 % of control | dose: 1.56 mg/kg/injection, schedule: Q04DX003 (ip), vehicle: saline 96 % of control | dose: 3.12 mg/kg/injection, schedule: Q01DX009 (ip), vehicle: saline 107 % of control | dose: 3.12 mg/kg/injection, schedule: Q04DX003 (ip), vehicle: saline 105 % of control | dose: 6.25 mg/kg/injection, schedule: Q01DX009 (ip), vehicle: saline 97 % of control | dose: 6.25 mg/kg/injection, schedule: Q04DX003 (ip), vehicle: saline 106 % of control | dose: 12.5 mg/kg/injection, schedule: Q01DX009 (ip), vehicle: saline 92 % of control | dose: 12.5 mg/kg/injection, schedule: Q04DX003 (ip), vehicle: saline 124 % of control | dose: 50.0 mg/kg/injection, schedule: Q04DX003 (ip), vehicle: saline 120 % of control | dose: 200.0 mg/kg/injection, schedule: Q04DX003 (ip), vehicle: saline 93 % of control

COC(=O)c1cc(S(=O)(=O)c2cc(C(=O)OC)c(O)cc2OC)c(OC)cc1O
inactive: dose: 100.0 mg/kg/injection, schedule: Q04DX002 (ip), vehicle: carboxymethylcellulose (CMC) 95 % of control | dose: 200.0 mg/kg/injection, schedule: Q04DX002 (ip), vehicle: carboxymethylcellulose (CMC) 95 % of control | dose: 400.0 mg/kg/injection, schedule: Q04DX002 (ip), vehicle: carboxymethylcellulose (CMC) 98 % of control
